# What was measured:
# [1] = tested on: Mycobacterium tuberculosis; assay: Ratio of MIC for Mycobacterium tuberculosis H37Rv overexpressing DprE1 to MIC for Mycobacterium tuberculosis H37Rv; format: functional
# [2] = tested on: Mycobacterium tuberculosis; assay: Antimycobacterial activity against Mycobacterium tuberculosis H37Rv overexpressing DprE1; format: functional
structure (smiles),measurement,setting,value
CC(Nc1ccc2c(c1)OCCO2)C(=O)Nc1ccc(Br)cc1 (racemic),Ratio,[1],8
same,MIC,[2],62.5 µM

# From ChEMBL document CHEMBL4619745, “Identification of 2-((2,3-dihydrobenzo[b][1,4]dioxin-6-yl)amino)-N-phenylpropanamides as a novel class of potent DprE1 inhibitors” (Bioorg Med Chem Lett, 2020)
